# US20110112044A1, “NOVEL USES OF D-MANNOPYRANOSE DERIVATIVES” (CENTRE NATIONAL DE LA RECHERCHE SCIENTIFIQUE, priority 2008, published 2011)
# System: chorioallantoic membrane (CAM) of chick embryo
# Experiment: Chick embryo chorioallantoic membrane (CAM) angiogenesis assay
# Type: in vivo, chick (white Leghorn)
# Conditions: 20 μL of 6 mg/mL in PBS on nitrocellulose disk placed on CAM on 7th day, observed 12th day, estimated visually
# From the text: In this example, the activity of mannose-6-phosphate (M6P) and of the compounds of formulae (I-1), (I-2) and (I-3) as prepared in examples 1 to 3 above, respectively, on the inhibition of angiogenesis was studied, in comparison with three D-mannopyranoside (DM) derivatives having pro-angiogenic activity and thus not forming part of the invention (DM1: methyl 7-amino-6,7-dideoxy-α-D-mannopyranoside; DM2: methyl 6-azido-6-deoxy-α-D-mannopyranoside and DM3: methyl 7-disodiumphosphonato-6,7-dideoxy-α-D-mannohepto-pyranoside). This study was performed on chick embryos according to the method described by Ribatti D. et al., Nat. Protoc., 2006, 1(1), 85-91 with a few minor modifications.
# This study was performed on the chorioallantoic membrane (CAM) of chick embryo. The CAM is an extra-embryonic membrane formed on the fourth day of incubation by fusion of the chorion and of the allantois. It allows gas exchange between the chick embryo and the extra-embryonic environment up to the time of birth. This CAM is composed of a very thick capillary network that forms a continuous surface in direct contact with the shell. Rapid capillary proliferation of this membrane continues up to the 11th day; the mitotic index then decreases rapidly and the vascular system reaches its final organization on the 18th day, just before birth (hatching on the 21st day).
# Fertilized eggs of a hen of the white Leghorn race were placed in an incubator from the start of embryogenesis, where they were kept under constant humidity at a temperature of 38° C. On the second day of incubation, a window was opened in the shell after removal of 2 to 3 mL of albumin in order to detach the CAM from the shell. The window was then sealed with adhesive tape and the egg was returned to the incubator to continue its development up to the date of the experiment. On the 7th day, pieces of inert synthetic polymers (nitrocellulose filter disks 0.4 cm in diameter) were soaked with 20 μL of each of the solutions of the test compounds (6 mg/mL in PBS) and then positioned on the CAM. The impact of the test substances on the angiogenesis was then observed on the 12th day and the quantitative evaluation of the pro- or anti-angiogenic response was estimated visually.
row,SMILES,effect on the vascularization of chick embryos
1,"CO[C@H]1O[C@H](CCS(=O)(=O)[O-])[C@@H](O)[C@H](O)[C@@H]1O.[Na+] [(I-1), Methyl 6,7-Dideoxy-7-Sodiumsulfonato-α-d-mannoheptopyranoside]",inhibitory effect
2,"CO[C@H]1OC(CC(=O)O)[C@@H](O)C(O)C1O (stereo partly drawn) [(I-2), (Methyl 6,7-Dideoxy-α-D-Mannoheptopyranosine)uronic acid]",inhibitory effect
3,"CO[C@H]1OC(CC(C(=O)O)C(=O)O)[C@@H](O)C(O)C1O (stereo partly drawn) [(I-3), methyl 6-deoxy-6-malonate-α-D-Mannopyranoside]",inhibitory effect
4,"CO[C@H]1O[C@H](CCN)[C@@H](O)[C@H](O)[C@@H]1O [DM1, methyl 7-amino-6,7-dideoxy-α-D-mannopyranoside, reference compound]",activating effect
5,"CO[C@H]1O[C@H](CN=[N+]=[N-])[C@@H](O)[C@H](O)[C@@H]1O [DM2, methyl 6-azido-6-deoxy-α-D-mannopyranoside, reference compound]",activating effect
6,"CO[C@H]1O[C@H](CCP(=O)([O-])[O-])[C@@H](O)[C@H](O)[C@@H]1O.[Na+].[Na+] [DM3, methyl 7-disodiumphosphonato-6,7-dideoxy-α-D-mannohepto-pyranoside, reference compound]",activating effect
7,"COC1O[C@H](COP(=O)(O)O)[C@@H](O)[C@H](O)[C@@H]1O (stereo partly drawn) [M6P, methyl D-mannopyranoside 6-phosphate]",inhibitory effect
